Assay [1] concerns Escherichia coli ATCC 25922. Description: Minimum inhibitory concentration (MIC). Type of assay: cell-based. The protocol:
(§1) Minimum inhibitory concentration (MIC) was determined to assess antibacterial and antifungal activities of the samples in microorganisms. MIC is the lowest concentration of a drug, which prevents visible growth of bacterium. The tested panel of microorganisms represent a very broad spectrum of microorganisms, including Gram-positive and Gram-negative strains (Staphylococcus aureus vs. Escherichia coli), methicillin resistant strain INA 00761 (Staphylococcus aureus), vancomycin resistant strain VKPM B-4177 (Leuconostoc mesenteroides), fungi strain INA 00760 (Aspergillus niger), and yeast strain RIA259 (Saccharomyces cerevisiae).

Assay [2] deals with Aspergillus niger INA 00760. The assay is described as follows: Minimum inhibitory concentration (MIC). The format is cell-based. The protocol:
as §1

Assay [3] deals with Staphylococcus aureus FDA 209P. Description: Minimum inhibitory concentration (MIC). The format is cell-based. As to the method: as §1
In assay [4] the test system is Saccharomyces cerevisiae RIA 259. Description: Minimum inhibitory concentration (MIC). The format is cell-based. As to the method: as §1
Assay [5] relates to methicillin resistant Staphylococcus aureus INA 00761. Description: Minimum inhibitory concentration (MIC). Type of assay: cell-based. The protocol:
as §1

The subject of assay [6] is vancomycin resistant Leuconostoc mesenteroides VKPM B-4177. Description: Minimum inhibitory concentration (MIC). Type of assay: cell-based. As to the method: as §1
(§2) Minimum inhibitory concentration (MIC) was determined to assess the antibacterial potential of the compositions of Example 6 in microorganisms. MIC is the lowest concentration of a drug which prevents visible growth of bacterium. The tested panel of microorganisms represented a very broad spectrum of antibiotic resistant microorganisms. Sample 4-1 and Tetracycline (as control) were tested against multidrug-resistant Salmonella typhimurium DT 104. Sample 4-2 and Amoxicillin (as control) were tested against Bacillus subtilis. Sample 4-3 and Vancomycin (as control) were tested against vancomycin resistant Enterococcus type Van-A and also vancomycin resistant Leuconostoc mesenteroides VKPM B-4177. In all test conditions monometallic silver nanoparticle composition with Miramistin® alone (obtained using a process known in the art) were used as a control. This composition is referred to as “Ag-NPs-Myramistin in Table 8.

The subject of assay [7] is CRL-2945 and U-87 cancer cells. Description: Activity of the drugs alone on cancer cells. The following applies: drug alone, data not shown. Type of assay: cell-based, human. As to the method: (§3) The cytotoxic effects of Samples 6-1, 6-2, 7-1 and 7-2, glucosamine and Metformin on cancer cells were studied in CRL-2945 (human ovarian carcinoma) and U-87 (human glioblastoma). The doxorubicin resistant CRL-2945 and U-87 cells were generated by exposing the cells to the cytotoxic drug at incrementally increasing concentrations. In this way, resistant sublines were obtained (CRL-2945-R and U-87-R). The cell viability was analyzed in cells treated with different concentrations of Sample 6-1, Sample 6-2, Sample 7-1 and Sample 7-2. The samples were able to reduce viability in a dose-dependent manner. […] The doses were used to calculate IC50 values against the control cells (Table 12).
Higher toxicity of Sample 6-2 can be explained by the fact that Sample 6-2 bears very toxic doxorubicin, which is delivered into the cells with nanoparticles. […] Cancer cells CRL-2945-R and U-87-R were cultured in serum-free media to enrich the populations with cancer stem cells. Thus, enriched cells were tested with the samples.

Assay [8] concerns multidrug-resistant Salmonella typhimurium DT 104. Description: Minimum inhibitory concentration (MIC). Type of assay: cell-based. The following applies: Salmonella enterica. The protocol: as §2
For assay [9], the system named is Bacillus subtilis. Description: Minimum inhibitory concentration (MIC). Type of assay: cell-based. The protocol: as §2
For assay [10], the system named is U-87-R. The assay is described as follows: Cancer cell viability (cytotoxic effect), doxorubicin resistant subline. The format is cell-based. Particulars: Homo sapiens, Doxorubicin column. As to the method: as §3
The subject of assay [11] is CRL-2945-R. The description is as above. The format is cell-based. Particulars: Homo sapiens, Doxorubicin column. The protocol:
as §3

In assay [12] the test system is U-87 (human glioblastoma). Description: Cancer cell viability (cytotoxic effect). Type of assay: cell-based. Particulars: U-87, Doxorubicin column. As to the method:
(§4) The cytotoxic effects of Samples 1-1 and 1-3 on cancer cells were studied in HCT-116 (human colon cancer cell lines), CRL-2945 (human ovarian carcinoma) and U-87 (human glioblastoma). Cell viability was analyzed in cells treated with different concentrations of Sample 1-1 and Sample 1-3. Nanoparticle samples were able to reduce viability in a dose-dependent manner. […] The doses were used to calculate IC50 value against the control cells (Table 3).
as §3

In assay [13] the test system is CRL-2945 (human ovarian carcinoma). Description: Cancer cell viability (cytotoxic effect). The format is cell-based. Particulars: CRL-2945, Doxorubicin column. As to the method: as §4, §3

Read-outs that look alike come from different tables or passages of the source.

Usually MIC stands for the smallest concentration in the dilution series that meets the test's criterion for growth inhibition. The IC50 is the midpoint of a concentration-inhibition curve.

As for `CCCCCCCCCCCCCC(=O)NCCC[N+](C)(C)Cc1ccccc1.[Cl-]` [Miramistin ®, benzyl-dimethyl-[3-(tetradecanoylamino)propyl]ammonium chloride], the minimum inhibitory concentration (MIC) in assay [1] (ATCC25922, read-out: MIC) stood at 20 µg/mL; in [2] (INA00760, read-out: MIC) it was 20 µg/mL; in [3] (FDA209P, read-out: MIC) it was 5 µg/mL; in assay [4] (RIA259, read-out: MIC), 20 µg/mL; in assay [5] (read-out: MIC) it was 10 µg/mL; in assay [6] (Leuconostoc mesenteroides VKPM B-4177, read-out: MIC), 10 µg/mL.

Regarding `N[C@H]1C(O)O[C@H](CO)[C@@H](O)[C@@H]1O` (stereo partly drawn) [Glucosamine], the “activity alone on cancer cells” value in [7] is “did not show any significant activity”.

Turning to `CN(C)C(=N)N=C(N)N` [Metformin], the “activity alone on cancer cells” value in [7] was “did not show any significant activity”.

For `CN(C)[C@@H]1C(O)=C(C(N)=O)C(=O)[C@@]2(O)C(O)=C3C(=O)c4c(O)cccc4[C@@](C)(O)[C@H]3C[C@@H]12` [Tetracycline], the MIC in assay [8] is above 128 µg/mL.

In assay [9], `CC1(C)S[C@@H]2[C@H](NC(=O)[C@H](N)c3ccc(O)cc3)C(=O)N2[C@H]1C(=O)O` [Amoxicillin] gave a minimal inhibitory concentration (MIC) above 128 µg/mL.

For `CN[C@H](CC(C)C)C(=O)N[C@H]1C(=O)N[C@@H](CC(N)=O)C(=O)N[C@H]2C(=O)N[C@H]3C(=O)N[C@H](C(=O)N[C@H](C(=O)O)c4cc(O)cc(O)c4-c4cc3ccc4O)[C@H](O)c3ccc(c(Cl)c3)Oc3cc2cc(c3O[C@@H]2O[C@H](CO)[C@@H](O)[C@H](O)[C@H]2O[C@H]2C[C@](C)(N)[C@H](O)[C@H](C)O2)Oc2ccc(cc2Cl)[C@H]1O` [Vancomycin], the MIC in [6] (Leuconostoc mesenteroides) is above 128 µg/mL.

For `COc1cccc2c1C(=O)c1c(O)c3c(c(O)c1C2=O)C[C@@](O)(C(=O)CO)C[C@@H]3O[C@H]1C[C@H](N)[C@H](O)[C@H](C)O1` [Doxorubicin], the IC50 in assay [10] was 1200 nM; in [11], 280 nM; in [12] it was 80 nM; in assay [13], 130 nM.

As to `O=[N+]([O-])[O-].[Ag+]` [Silver Nitrate, silver nitrate], the MIC was 10 µg/mL in assay [1]; 20 µg/mL in assay [2]; 20 µg/mL in assay [3]; 10 µg/mL in [4]; 5 µg/mL in [5]; 5 µg/mL in [6] (Leuconostoc mesenteroides VKPM B-4177).

For the origin of these results see patent publication US12515963B2, “Nanoparticle composition and method of inhibiting ovarian cancer cell viability” (priority 2019, dated 2026).
